Values belong to the compound of their own block, whether it stands above or below them.
Experiments:
[1] = target: T1, Mushroom tyrosinase (Agaricus bisporus, UniProt O42713+Q00024+C7FF04+C7FF05); assay: Inhibition of mushroom Tyrosinase; type: protein assay
[2] = target: Tyrosinase (Homo sapiens, UniProt P14679); assay: Inhibition of human tyrosinase
[3] = system: HUVEC; assay: Antiproliferative activity against VEGF-stimulated HUVEC assessed as inhibition of cell growth incubated for 3 days by MTT assay; type: functional, cell-based; conditions: Homo sapiens, 72 h
[4] = system: A549; assay: Cytotoxicity against human A549 cells assessed as reduction in cell growth incubated for 24 hrs by MTT assay; type: functional, cell-based; conditions: A549, 24 h
[5] = system: MCF-12A; assay: Cytotoxicity against human MCF-12A cells assessed as reduction in cell viability incubated for 24 hrs by MTT assay; type: functional, cell-based
[6] = system: MCF7; assay: Cytotoxicity against human MCF7 cells assessed as reduction in cell growth incubated for 24 hrs by MTT assay; type: functional, cell-based; conditions: MCF7, 24 h
[7] = system: HCT-15; assay: Growth inhibition of human HCT-15 cells incubated for 72 hrs by SRB assay; type: functional
[8] = Cytotoxicity against human HFL1 cells assessed as cell growth inhibition incubated for 24 hrs by MTT assay; type: toxicity, cell-based
[9] = system: HepG2; assay: Cytotoxicity against human HepG2 cells assessed as reduction in cell growth incubated for 72 hrs by MTT assay; type: functional, cell-based; conditions: HepG2, 72 h
[10] = system: MCF7; assay: Cytotoxicity against human MCF7 cells assessed as reduction in cell growth incubated for 72 hrs by MTT assay; type: functional, cell-based; conditions: MCF7, 72 h
[11] = system: A549; assay: Cytotoxicity against human A549 cells assessed as reduction in cell growth incubated for 72 hrs by MTT assay; type: functional, cell-based; conditions: A549, 72 h
[12] = target: T2, Hepatocyte growth factor receptor (Homo sapiens, UniProt P08581); assay: Inhibition of c-Met (unknown origin) by mobility shift assay
[13] = target: DNA topoisomerase 1 (Homo sapiens, UniProt P11387); assay: Inhibition of DNA topoisomerase I (unknown origin)
[14] = target: Kinesin-like protein KIF11 (Homo sapiens, UniProt P52732); assay: Inhibition of KSP/Eg5 (unknown origin)
[15] = system: K562; assay: Antiproliferative activity against human K562 cells assessed as reduction in cell growth incubated for 48 hrs by MTT assay; type: functional, cell-based; conditions: K562, 48 h
[16] = system: A549; assay: Antiproliferative activity against human A549 cells transfected with sh-empty vector assessed as reduction in cell growth incubated for 48 hrs by MTT assay; type: functional, cell-based; conditions: A549, 48 h
[17] = system: A549; assay: Antiproliferative activity against human A549 cells transfected with sh-EZH2 vector assessed as reduction in cell growth incubated for 48 hrs by MTT assay; type: functional, cell-based; conditions: A549, 48 h
[18] = system: U-251; assay: Anticancer activity against human U-251 cells assessed as reduction in cell growth; type: functional, cell-based
[19] = system: A549; assay: Anticancer activity against human A549 cells assessed as inhibition of cell growth; type: functional, cell-based
[20] = target: Lysine-specific histone demethylase 1A (Homo sapiens, UniProt O60341); assay: Inhibition of LSD1 (unknown origin)
[21] = target: Vascular endothelial growth factor receptor 2 (Homo sapiens, UniProt P35968); assay: Inhibition of VEGFR-2 (unknown origin) by ELISA analysis
[22] = Cytotoxicity against mouse NIH3T3 cells assessed as reduction in cell viability incubated for 24 hrs by MTT assay; type: toxicity, cell-based
[23] = system: T47D; assay: Cytotoxicity against human T47D cells assessed as reduction in cell viability by MTT assay; type: functional, cell-based
[24] = system: MCF7; assay: Cytotoxicity against human MCF7 cells assessed as reduction in cell growth by MTT assay; type: functional, cell-based
[25] = system: A-431; assay: Cytotoxicity against human A-431 cells assessed as reduction in cell growth by MTT assay; type: functional, cell-based
[26] = system: DU-145; assay: Cytotoxicity against human DU-145 cells assessed as reduction in cell growth by MTT assay; type: functional, cell-based
[27] = system: HT-29; assay: Cytotoxicity against human HT-29 cells assessed as reduction in cell growth by MTT assay; type: functional, cell-based
[28] = system: A2780; assay: Cytotoxicity against human A2780 cells assessed as reduction in cell growth by MTT assay; type: functional, cell-based
[29] = target: Poly [ADP-ribose] polymerase 2 (Homo sapiens, UniProt Q9UGN5); assay: Inhibition of PARP-2 (unknown origin)
[30] = system: MCF7; assay: Cytotoxicity against human MCF7 cells assessed as reduction in cell viability incubated for 96 hrs by MTT assay; type: functional
[31] = target: Poly [ADP-ribose] polymerase 1 (Homo sapiens, UniProt P09874); assay: Inhibition of PARP-1 (unknown origin)
[32] = system: MDA-MB-436; assay: Cytotoxicity against human MDA-MB-436 cells assessed as reduction in cell viability incubated for 96 hrs by MTT assay; type: functional
[33] = system: MDA-MB-231; assay: Cytotoxicity against human MDA-MB-231 cells assessed as reduction in cell viability by MTT assay; type: functional, cell-based
[34] = system: SUNE1; assay: Anticancer activity against human SUNE1 cells assessed as reduction in cell growth; type: toxicity, cell-based
[35] = system: CNE-2; assay: Anticancer activity against human CNE-2 cells assessed as reduction in cell growth; type: functional, cell-based
[36] = system: K562; assay: Antiproliferative activity against human K562 cells assessed as reduction in cell growth incubated for 48 hrs by WST-8 assay; type: functional, cell-based; conditions: K562, 48 h
[37] = target: T2, Hepatocyte growth factor receptor; assay: Inhibition of human c-Met
[38] = system: MKN-45; assay: Antiproliferative activity against human MKN-45 cells assessed as reduction in cell growth incubated for 72 hrs by CCK-8 assay; type: functional, cell-based; conditions: MKN-45, 72 h
[39] = target: T1, Mushroom tyrosinase; assay: Inhibition of mushroom tyrosinase using L-DOPA as substrate preincubated for 10 mins followed by substrate addition and measured after 15 mins by spectrophotometric method; type: protein assay

Chain of Vascular endothelial growth factor receptor 2 (P35968 whole entry): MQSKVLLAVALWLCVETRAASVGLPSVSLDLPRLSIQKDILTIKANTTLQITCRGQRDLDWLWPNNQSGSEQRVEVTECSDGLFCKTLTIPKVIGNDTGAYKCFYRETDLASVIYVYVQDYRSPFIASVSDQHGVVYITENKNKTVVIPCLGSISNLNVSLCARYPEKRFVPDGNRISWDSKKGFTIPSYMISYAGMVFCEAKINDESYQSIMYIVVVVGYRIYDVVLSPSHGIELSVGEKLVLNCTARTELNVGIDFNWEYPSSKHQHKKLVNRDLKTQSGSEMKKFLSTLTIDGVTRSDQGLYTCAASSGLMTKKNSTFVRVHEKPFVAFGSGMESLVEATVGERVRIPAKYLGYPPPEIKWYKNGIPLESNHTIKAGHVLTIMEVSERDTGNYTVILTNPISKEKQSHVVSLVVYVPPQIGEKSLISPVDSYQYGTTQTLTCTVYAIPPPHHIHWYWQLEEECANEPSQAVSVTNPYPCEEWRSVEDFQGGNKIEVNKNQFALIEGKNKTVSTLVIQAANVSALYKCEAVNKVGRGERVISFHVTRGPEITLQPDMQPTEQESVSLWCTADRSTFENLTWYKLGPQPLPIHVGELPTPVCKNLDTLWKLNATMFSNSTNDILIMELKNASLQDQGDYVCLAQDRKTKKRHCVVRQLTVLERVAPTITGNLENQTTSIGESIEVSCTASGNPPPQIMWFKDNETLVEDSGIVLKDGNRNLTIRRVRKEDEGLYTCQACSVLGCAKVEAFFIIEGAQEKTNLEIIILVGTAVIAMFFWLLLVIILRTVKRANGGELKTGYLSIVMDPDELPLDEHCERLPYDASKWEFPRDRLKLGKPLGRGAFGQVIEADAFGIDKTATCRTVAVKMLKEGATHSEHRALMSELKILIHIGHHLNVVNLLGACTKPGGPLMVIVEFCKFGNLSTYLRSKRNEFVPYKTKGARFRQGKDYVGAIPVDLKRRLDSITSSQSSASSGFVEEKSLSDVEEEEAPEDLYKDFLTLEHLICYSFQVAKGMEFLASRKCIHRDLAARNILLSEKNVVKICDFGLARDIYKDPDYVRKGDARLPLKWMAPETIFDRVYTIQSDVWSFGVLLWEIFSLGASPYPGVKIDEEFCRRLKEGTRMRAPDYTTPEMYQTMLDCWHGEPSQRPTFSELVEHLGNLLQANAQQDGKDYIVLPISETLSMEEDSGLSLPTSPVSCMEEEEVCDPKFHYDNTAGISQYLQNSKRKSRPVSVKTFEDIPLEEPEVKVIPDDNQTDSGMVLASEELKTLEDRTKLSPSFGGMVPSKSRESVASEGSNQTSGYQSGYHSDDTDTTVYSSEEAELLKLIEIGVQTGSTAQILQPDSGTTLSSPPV
Chain of Kinesin-like protein KIF11 (P52732 whole entry): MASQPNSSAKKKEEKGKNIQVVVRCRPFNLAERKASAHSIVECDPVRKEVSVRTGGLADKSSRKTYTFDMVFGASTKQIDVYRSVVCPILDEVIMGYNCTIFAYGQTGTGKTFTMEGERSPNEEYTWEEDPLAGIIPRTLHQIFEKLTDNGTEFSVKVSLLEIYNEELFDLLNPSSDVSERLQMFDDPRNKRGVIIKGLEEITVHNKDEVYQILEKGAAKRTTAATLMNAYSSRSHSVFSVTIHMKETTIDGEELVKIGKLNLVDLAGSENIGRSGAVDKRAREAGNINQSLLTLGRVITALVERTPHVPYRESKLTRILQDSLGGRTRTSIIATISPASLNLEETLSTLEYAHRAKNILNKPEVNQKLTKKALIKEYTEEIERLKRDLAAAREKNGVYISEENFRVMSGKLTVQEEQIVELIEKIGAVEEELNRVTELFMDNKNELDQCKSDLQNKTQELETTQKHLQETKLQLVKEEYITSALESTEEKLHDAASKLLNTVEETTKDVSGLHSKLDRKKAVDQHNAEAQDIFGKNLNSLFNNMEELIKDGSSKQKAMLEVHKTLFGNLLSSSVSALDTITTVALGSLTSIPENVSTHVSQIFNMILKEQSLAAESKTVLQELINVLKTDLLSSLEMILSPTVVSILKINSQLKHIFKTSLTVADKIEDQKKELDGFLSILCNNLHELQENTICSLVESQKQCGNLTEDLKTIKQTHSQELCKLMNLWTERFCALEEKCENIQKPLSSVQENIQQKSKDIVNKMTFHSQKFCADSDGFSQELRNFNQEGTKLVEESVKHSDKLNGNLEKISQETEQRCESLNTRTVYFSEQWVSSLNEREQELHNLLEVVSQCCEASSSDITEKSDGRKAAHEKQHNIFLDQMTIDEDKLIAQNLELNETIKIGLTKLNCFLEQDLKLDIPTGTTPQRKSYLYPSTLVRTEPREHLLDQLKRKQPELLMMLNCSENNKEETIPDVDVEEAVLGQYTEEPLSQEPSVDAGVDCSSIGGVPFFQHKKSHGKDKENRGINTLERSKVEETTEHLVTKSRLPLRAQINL
T2 sequence (P08581 whole entry): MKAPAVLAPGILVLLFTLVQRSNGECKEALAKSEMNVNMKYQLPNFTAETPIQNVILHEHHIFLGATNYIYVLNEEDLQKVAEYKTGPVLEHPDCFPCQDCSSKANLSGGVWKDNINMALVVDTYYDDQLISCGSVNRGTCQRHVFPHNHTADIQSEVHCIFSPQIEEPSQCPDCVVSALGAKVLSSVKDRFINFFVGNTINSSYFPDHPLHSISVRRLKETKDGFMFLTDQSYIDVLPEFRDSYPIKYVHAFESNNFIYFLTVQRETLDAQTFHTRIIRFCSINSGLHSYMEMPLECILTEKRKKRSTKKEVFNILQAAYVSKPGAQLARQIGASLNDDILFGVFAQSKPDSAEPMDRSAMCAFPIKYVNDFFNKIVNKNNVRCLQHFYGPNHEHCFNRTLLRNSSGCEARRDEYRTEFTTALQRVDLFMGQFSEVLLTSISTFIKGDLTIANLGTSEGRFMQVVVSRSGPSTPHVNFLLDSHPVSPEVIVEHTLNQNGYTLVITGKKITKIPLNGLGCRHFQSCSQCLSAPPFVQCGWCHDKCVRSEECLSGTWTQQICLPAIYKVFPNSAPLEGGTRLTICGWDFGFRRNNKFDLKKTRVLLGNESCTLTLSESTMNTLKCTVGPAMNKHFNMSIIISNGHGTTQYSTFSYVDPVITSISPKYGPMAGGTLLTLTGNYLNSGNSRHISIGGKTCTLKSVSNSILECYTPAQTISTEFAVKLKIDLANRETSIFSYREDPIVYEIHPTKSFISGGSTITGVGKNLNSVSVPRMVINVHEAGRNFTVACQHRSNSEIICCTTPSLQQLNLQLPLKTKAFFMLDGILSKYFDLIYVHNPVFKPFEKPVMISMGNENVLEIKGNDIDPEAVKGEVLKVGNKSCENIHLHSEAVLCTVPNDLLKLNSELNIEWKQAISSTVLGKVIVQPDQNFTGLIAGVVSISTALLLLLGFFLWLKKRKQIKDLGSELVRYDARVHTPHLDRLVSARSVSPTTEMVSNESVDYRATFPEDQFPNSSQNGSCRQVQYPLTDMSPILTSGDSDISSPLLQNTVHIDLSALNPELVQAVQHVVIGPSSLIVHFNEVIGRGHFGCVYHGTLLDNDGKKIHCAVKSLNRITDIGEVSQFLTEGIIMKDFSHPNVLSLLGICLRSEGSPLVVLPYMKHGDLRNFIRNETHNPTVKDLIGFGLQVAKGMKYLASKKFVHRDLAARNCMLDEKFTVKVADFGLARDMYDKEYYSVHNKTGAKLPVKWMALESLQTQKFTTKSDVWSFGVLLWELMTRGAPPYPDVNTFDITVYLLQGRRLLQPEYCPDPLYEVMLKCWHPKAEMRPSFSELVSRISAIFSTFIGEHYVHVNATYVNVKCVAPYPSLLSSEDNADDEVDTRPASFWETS
Chain of DNA topoisomerase 1 (P11387 whole entry): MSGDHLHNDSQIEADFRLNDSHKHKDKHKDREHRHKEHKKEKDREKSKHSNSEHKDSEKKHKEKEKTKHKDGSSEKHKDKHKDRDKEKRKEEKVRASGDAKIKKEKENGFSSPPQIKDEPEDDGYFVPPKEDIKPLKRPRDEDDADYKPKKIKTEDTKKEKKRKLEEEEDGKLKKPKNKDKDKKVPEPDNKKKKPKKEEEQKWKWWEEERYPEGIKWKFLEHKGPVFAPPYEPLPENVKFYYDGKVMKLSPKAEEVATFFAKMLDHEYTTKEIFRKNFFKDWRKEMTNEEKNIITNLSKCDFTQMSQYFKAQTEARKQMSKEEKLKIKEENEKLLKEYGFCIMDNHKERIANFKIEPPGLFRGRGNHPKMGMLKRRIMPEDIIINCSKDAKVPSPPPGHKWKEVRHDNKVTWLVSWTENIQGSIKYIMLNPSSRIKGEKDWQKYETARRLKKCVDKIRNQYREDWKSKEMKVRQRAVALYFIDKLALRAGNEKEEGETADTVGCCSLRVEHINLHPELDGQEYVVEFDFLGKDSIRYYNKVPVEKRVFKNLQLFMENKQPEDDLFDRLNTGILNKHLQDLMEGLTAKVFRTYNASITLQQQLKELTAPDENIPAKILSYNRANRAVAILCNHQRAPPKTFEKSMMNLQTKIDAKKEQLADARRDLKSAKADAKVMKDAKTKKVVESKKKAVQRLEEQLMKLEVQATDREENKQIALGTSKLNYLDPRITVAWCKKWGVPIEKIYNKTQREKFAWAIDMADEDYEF
Chain of Tyrosinase (P14679 whole entry): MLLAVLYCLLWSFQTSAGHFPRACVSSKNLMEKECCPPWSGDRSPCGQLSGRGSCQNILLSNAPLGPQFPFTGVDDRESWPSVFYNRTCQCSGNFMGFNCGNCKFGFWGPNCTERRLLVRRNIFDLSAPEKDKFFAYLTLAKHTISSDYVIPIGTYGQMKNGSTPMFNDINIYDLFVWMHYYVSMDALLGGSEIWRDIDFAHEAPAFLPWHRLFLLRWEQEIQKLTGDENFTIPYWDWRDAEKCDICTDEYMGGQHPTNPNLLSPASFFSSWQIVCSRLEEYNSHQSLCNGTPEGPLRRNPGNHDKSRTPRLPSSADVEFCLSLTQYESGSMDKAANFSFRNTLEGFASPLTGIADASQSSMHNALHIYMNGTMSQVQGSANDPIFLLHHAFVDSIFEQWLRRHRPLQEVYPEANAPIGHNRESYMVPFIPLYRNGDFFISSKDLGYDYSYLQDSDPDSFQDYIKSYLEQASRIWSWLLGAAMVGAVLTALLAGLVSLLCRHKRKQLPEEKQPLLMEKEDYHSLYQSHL

IC50 [1]: 3.99 µM
SMILES: NC(=S)N/N=C/c1ccc[nH]1

IC50 [1]: 0.07 µM
IC50 [2]: 175 µM
SMILES: O=C(N/N=C/c1ccc(O)cc1)c1cc2ccccc2[nH]1

IC50 [13]: 28.1 µM
IC50 [14]: 18.8 µM
SMILES: Cc1ccc(NC(=S)NNC(=O)c2cc3c([nH]c4ccccc43)c(-c3cccc(O)c3)n2)cc1
IC50 [4]: 2.57 µM
IC50 [5]: 16 µM
IC50 [6]: 6.57 µM

IC50 [15]: 58.7 µM
IC50 [16]: 72.8 µM
IC50 [17]: 270 µM
SMILES: Cc1cc(C)c(CNC(=O)c2c(C)cn(Cc3ccc(CC(F)(F)F)cc3)c2C)c(=O)[nH]1

IC50 [18]: 2.29 µM
IC50 [19]: 3.49 µM
SMILES: CC(=O)n1cc(C(=O)OC(C)C)c(C#Cc2ccc(Cl)cc2)c1C(=O)OC(C)C

IC50 [1]: 344.83 µM
SMILES: CNC(=S)N/N=C/c1ccc[nH]1

IC50 [20]: 0.0078 µM
SMILES: CCOCc1cccc(NC(=O)c2cc3sccc3n2C)c1CCOc1ccc(OC[C@@H]2CCNC2)cc1

IC50 [29]: 0.00884 µM
IC50 [31]: 0.014 µM
SMILES: CC(C)NCc1ccc(-c2[nH]c3cccc4c3c2C=NNC4=O)cc1
CC50 [30]: 22.3 µM
CC50 [32]: 0.98 µM

IC50 [1]: 94.23 µM
SMILES: S=C(N/N=C/c1ccc[nH]1)Nc1ccccc1

IC50 [20]: 0.075 µM
SMILES: COCc1cccc(NC(=O)c2cc3sccc3n2C)c1CCOc1ccc(OC2CCNCC2)cc1

IC50 [21]: 1.14 µM
SMILES: O=C(CN1CCCCC1)Nc1cccc(-c2cc3ccccc3[nH]2)c1

IC50 [21]: 0.07 µM
SMILES: Cc1cc(NS(=O)(=O)c2ccc(N3C(=O)/C(=C/c4c[nH]c5ccccc45)N=C3c3ccccc3)cc2)no1

Continued, compound first:

SMILES: Cc1c(OCC(O)CN2CCN(C)CC2)cn2ncnc(Oc3ccc(NC(=O)C4(C(=O)Nc5ccc(F)cc5)CC4)cc3F)c12 (configuration not stated)
IC50 [3]: 5 µM

SMILES: O=C(NNC(=S)Nc1ccc(Br)cc1)c1cc2c([nH]c3ccccc32)c(-c2cccc(O)c2)n1
IC50 [4]: 3.63 µM
IC50 [5]: 30.2 µM
IC50 [6]: 3.59 µM

SMILES: CSc1nnc(-c2cc3c([nH]c4ccccc43)c(-c3cccc(O)c3)n2)o1
IC50 [4]: 4.57 µM
IC50 [5]: 38.2 µM
IC50 [6]: 6.41 µM

SMILES: COc1cccc2c1c(C(=O)C(=O)Nc1cc[nH]n1)cn2Cc1ccc(F)cc1
IC50 [1]: 372 µM

SMILES: COc1ccc(OC)c(-c2nc(/C=C3/C(=O)N(Cc4ccccc4)c4ccc(Br)cc43)cc3c2[nH]c2ccccc23)c1
GI50 [7]: 0.89 µM
IC50 at 24 h [8]: 49.8 µM

SMILES: Cc1c(C(=O)Nc2ccc(Oc3ncnc4[nH]ccc34)c(F)c2)nnn1-c1ccc(F)cc1
IC50 [9]: 2.03 µM
IC50 [10]: 2.9 µM
IC50 [11]: 4.79 µM
IC50 [12]: 0.79 µM

SMILES: COc1cccc2c1c(C(C)=O)cn2Cc1ccc(F)cc1
IC50 [1]: 224 µM

SMILES: CNC(=O)c1ccccc1Sc1ccc2c(/N=N/c3cc(C)[nH]c3C)n[nH]c2c1
IC50 [3]: 44 µM

SMILES: C=c1[nH]c2ccc(Br)cc2/c1=C/c1cc2c([nH]1)CN(CCN(CC)CC)C2=O
IC50 [21]: 24.9 µM

SMILES: Cc1c(C(=O)C(=O)Nc2ccncc2)cc(-c2ccccc2)n1-c1ccccc1
IC50 at 24 h [22]: > 100 µM
IC50 [23]: 11.8 µM

SMILES: O=C(NCc1ccccc1)C(CNC(=O)C1C(C(=O)O)[C@@H]2CC[C@H]1O2)Cc1ccc[nH]1 (some centres not stated)
IC50 [24]: 0.017 µM
IC50 [25]: 0.017 µM
IC50 [26]: 0.017 µM
IC50 [27]: 0.017 µM
IC50 [28]: 0.017 µM

SMILES: CCN1CCC(Oc2ccc(OCCc3ccccc3NC(=O)c3cc4sccc4n3C)cc2)CC1
IC50 [20]: 0.451 µM

SMILES: Cc1c(C(=O)C(=O)Nc2ccncc2)cc(-c2ccccc2)n1-c1ccc(F)cc1
IC50 at 24 h [22]: > 100 µM
IC50 [33]: 11.8 µM

SMILES: O=C(N/N=C/c1ccc([N+](=O)[O-])n1Cc1cccc(F)c1)c1cccc(O)c1O
IC50 [34]: 0.08 µM
IC50 [35]: 4.43 µM

SMILES: CCNC(=S)NNC(=O)c1cc2c([nH]c3ccccc32)c(-c2cccc(O)c2)n1
IC50 [4]: 4.56 µM
IC50 [13]: 28.3 µM
IC50 [5]: 28.4 µM
IC50 [14]: 32.3 µM
IC50 [6]: 7.2 µM

SMILES: Cc1cc(NS(=O)(=O)c2ccc(N3C(=O)/C(=C/c4c[nH]c5ccccc45)N=C3c3ccc(Cl)cc3)cc2)no1
IC50 [21]: 1.61 µM

SMILES: Cc1cc(C)c(CNC(=O)c2c(C)n(Cc3ccccc3)c3ccc(OCCN4CCCCC4)cc23)c(=O)[nH]1
IC50 [36]: 52.6 µM

SMILES: CNC(=O)c1ccc(-c2ccc3ncc(S(=O)(=O)n4ccc5ccccc54)n3c2)cc1F
IC50 [37]: 0.0128 µM
IC50 [38]: 0.0099 µM

SMILES: C=Cc1ccccc1-c1ccn(C)c1C#N
IC50 [39]: 0.97 µM
